Assays:
Format in all cases: biochemical
JAK3 = target: T1, JAK3 (Homo sapiens, UniProt P52333); experiment: JAK3 inhibition (Table 4); details: read-out: JAK3 Ki
T1 construct: made in house; host or cells: SF9 insect cells (baculovirus)

JAK2 = target: T2, JAK2 (Homo sapiens, UniProt O60674); experiment: JAK2 inhibition (Table 4); details: read-out: JAK2 Ki
T2 construct: made in house; host or cells: SF9 insect cells (baculovirus)

JAK1 = target: T3, JAK1 (Homo sapiens, UniProt P23458); experiment: JAK1 inhibition (Table 4); details: read-out: JAK1 Ki
T3 construct: made in house; host or cells: SF9 insect cells (baculovirus)

TYK2 = target: T4, TYK2 (Homo sapiens, UniProt P29597); experiment: TYK2 inhibition (Table 4)
T4 construct: made in house; host or cells: SF9 insect cells (baculovirus)
T4 sequence (P29597 873-1187): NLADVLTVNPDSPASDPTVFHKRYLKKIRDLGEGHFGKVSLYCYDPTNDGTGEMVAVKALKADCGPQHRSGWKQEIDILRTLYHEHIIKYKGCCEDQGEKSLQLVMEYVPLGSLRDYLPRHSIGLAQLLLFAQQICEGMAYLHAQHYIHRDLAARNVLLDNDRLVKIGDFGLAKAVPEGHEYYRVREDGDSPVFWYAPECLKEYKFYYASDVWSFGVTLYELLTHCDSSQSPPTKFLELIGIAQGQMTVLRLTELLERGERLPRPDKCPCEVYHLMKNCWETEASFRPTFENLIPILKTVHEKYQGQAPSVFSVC

T2 sequence (O60674 812-1132): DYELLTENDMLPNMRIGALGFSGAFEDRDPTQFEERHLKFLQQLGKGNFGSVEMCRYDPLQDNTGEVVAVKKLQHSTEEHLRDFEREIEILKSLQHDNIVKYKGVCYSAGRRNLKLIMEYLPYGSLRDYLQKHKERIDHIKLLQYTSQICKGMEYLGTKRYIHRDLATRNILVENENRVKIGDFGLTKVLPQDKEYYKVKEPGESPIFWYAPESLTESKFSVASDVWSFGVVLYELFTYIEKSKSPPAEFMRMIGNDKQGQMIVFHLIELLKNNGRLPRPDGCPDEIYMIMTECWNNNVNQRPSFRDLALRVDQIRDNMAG
T3 sequence (P23458 852-1154): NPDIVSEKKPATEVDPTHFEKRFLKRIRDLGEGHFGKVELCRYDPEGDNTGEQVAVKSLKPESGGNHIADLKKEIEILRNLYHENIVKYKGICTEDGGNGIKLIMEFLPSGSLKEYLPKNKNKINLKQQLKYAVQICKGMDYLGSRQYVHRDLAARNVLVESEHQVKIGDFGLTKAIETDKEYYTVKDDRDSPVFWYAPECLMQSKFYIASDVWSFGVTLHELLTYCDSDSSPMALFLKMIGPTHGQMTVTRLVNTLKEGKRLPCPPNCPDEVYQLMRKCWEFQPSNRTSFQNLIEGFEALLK
T1 sequence (P52333 783-1124): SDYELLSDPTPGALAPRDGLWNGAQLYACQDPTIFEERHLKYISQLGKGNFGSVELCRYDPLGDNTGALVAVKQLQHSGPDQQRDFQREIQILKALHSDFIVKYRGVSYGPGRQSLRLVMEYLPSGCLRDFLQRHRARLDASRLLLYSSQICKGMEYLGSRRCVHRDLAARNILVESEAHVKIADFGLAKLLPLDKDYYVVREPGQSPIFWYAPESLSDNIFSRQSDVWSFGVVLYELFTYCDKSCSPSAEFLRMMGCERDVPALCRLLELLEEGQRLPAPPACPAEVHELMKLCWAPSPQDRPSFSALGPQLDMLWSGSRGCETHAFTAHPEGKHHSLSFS

| SMILES | Ki (JAK3) | Ki (JAK2) | Ki (JAK1) | Ki (TYK2) |
| --- | --- | --- | --- | --- |
| N#CCCN1CCC(n2c(CC3CC3)nc3cnc4[nH]ccc4c32)CC1 [Example 383, 3-[4-(2-Cyclopropylmethyl-6H-1,3,5,6-tetraaza-as-indacen-1-yl)-piperidin-1-yl]-propionitrile] | 21.4 nM | 35.6 nM | 9.88 nM | 217 nM |
| COCCNc1nc2cnc3[nH]ccc3c2n1C1CCN(CCC#N)CC1 [Example 770, 3-{4-[2-(2-Methoxy-ethylamino)-6H-1,3,5,6-tetraaza-as-indacen-1-yl]-piperidin-1-yl}-propionitrile] | 42.7 nM | 32.7 nM | 8.8 nM | 207 nM |
| CCN1CC[C@@H](n2c(CCNS(=O)(=O)CC)nc3cnc4[nH]ccc4c32)[C@@H](F)C1 [Example 681, Ethanesulfonic acid {2-[1-((3S,4R)-1-ethyl-3-fluoro-piperidin-4-yl)-1,6-dihydro-1,2,3,5,6-tetraaza-as-indacen-2-yl]-ethyl}-amide] | 133 nM | 32.6 nM | 4.21 nM | 290 nM |
| Cc1nc2cnc3[nH]ccc3c2n1C1CCC2CC(=O)NC2C1 (single isomer, unassigned) [Example 112a, 6-(2-Methyl-6H-1,2,3,5,6-tetraaza-as-indacen-1-yl)-octahydro-indol-2-one] | 300 nM | 58.3 nM | 64.4 nM | 630 nM |
| Cn1ncc2c1CC[C@@H](n1cnc3cnc4[nH]ccc4c31)C2 [Example 955, 1-((R)-1-Methyl-4,5,6,7-tetrahydro-1H-indazol-5-yl)-1,6-dihydro-1,3,5,6-tetraaza-as-indacene] | 109 nM | 8.9 nM | 7.67 nM | 53.6 nM |
| CC(CC#N)N1CCC(n2c(CCn3cncn3)nc3cnc4[nH]ccc4c32)CC1 (racemic) [Example 394, 3-{4-[2-(2-[1,2,4]Triazol-1-yl-ethyl)-6H-1,3,5,6-tetraaza-as-indacen-1-yl]-piperidin-1-yl}-butyronitrile] | 152 nM | 37.9 nM | 18.3 nM | 170 nM |
| O=S(=O)(c1ccccc1)N1CCC[C@@H](n2cnc3cnc4[nH]ccc4c32)C1 [Example 359, 1-((R)-1-Benzenesulfonyl-piperidin-3-yl)-1,6-dihydro-1,3,5,6-tetraaza-as-indacene] | 67.1 nM | 10.5 nM | 12.4 nM | 52.8 nM |
| CC(O)c1nc2cnc3[nH]ccc3c2n1C1CCCN(C(=O)C2CCOC2)C1 (stereo not shown) [Example 786, {3-[2-(1-Hydroxy-ethyl)-6H-1,3,5,6-tetraaza-as-indacen-1-yl]-piperidin-1-yl}-(tetrahydro-furan-3-yl)-methanone] | 1120 nM | 596 nM | 52.5 nM | 599 nM |
| Cc1cc(Cc2nc3cnc4[nH]ccc4c3n2C2CCOCC2)on1 [Example 472, 2-(3-Methyl-isoxazol-5-ylmethyl)-1-(tetrahydro-pyran-4-yl)-1,6-dihydro-1,3,5,6-tetraaza-as-indacene] | 405 nM | 694 nM | 57.3 nM | 389 nM |
| Cc1nc2cnc3[nH]ccc3c2n1C1CCC(NCC(F)(F)F)C1 (racemic) [Example 626, Racemic trans [3-(2-Methyl-6H-1,2,3,5,6-tetraaza-as-indacen-1-yl)-cyclopentyl]-(2,2,2-trifluoro-ethyl)-amine] | 33.7 nM | 6.4 nM | 2.04 nM | 9.38 nM |
| c1cc2c(ncc3nc([C@H]4CCCN4)n([C@H]4CCCOC4)c32)[nH]1 [Example 667, 2-(R)-Pyrrolidin-2-yl-1-(S)-tetrahydro-pyran-3-yl-1,6-dihydro-1,2,3,5,6-tetraaza-as-indacene] | 895 nM | 467 nM | 114 nM | 519 nM |
| Cn1cc(CN2CCC(n3cnc4cnc5[nH]ccc5c43)CC2)cn1 [Example 68] | 354 nM | 70.7 nM | 21 nM | 1160 nM |
| N#CCCN1CCC(n2c(Cn3cccn3)nc3cnc4[nH]ccc4c32)CC1 [Example 205, 3-[4-(2-Pyrazol-1-ylmethyl-6H-1,2,3,5,6-tetraaza-as-indacen-1-yl)-piperidin-1-yl]-propionitrile] | 32.6 nM | 23.3 nM | 6.42 nM | 86.5 nM |
| CC(CF)N1CCC(n2c([C@@H](C)O)nc3cnc4[nH]ccc4c32)CC1 (stereo partly shown) [Example 691, 1-{1-[1-(2-Fluoro-1-methyl-ethyl)-piperidin-4-yl]-1,6-dihydro-1,2,3,5,6-tetraaza-as-indacen-2-yl}-ethanol] | 206 nM | 320 nM | 61.4 nM | 750 nM |
| CC(CC#N)N1CCC(n2c(C3CCC3)nc3cnc4[nH]ccc4c32)CC1 (racemic) [Example 392, 3-[4-(2-Cyclobutyl-6H-1,3,5,6-tetraaza-as-indacen-1-yl)-piperidin-1-yl]-butyronitrile] | 33.9 nM | 16.7 nM | 6.67 nM | 128 nM |
| N#CCCN1CCC(n2c(COCC3CCOC3)nc3cnc4[nH]ccc4c32)CC1 (stereo not shown) [Example 836, 3-{4-[2-(Tetrahydro-furan-3-ylmethoxymethyl)-6H-1,3,5,6-tetraaza-as-indacen-1-yl]-piperidin-1-yl}-propionitrile] | 95.1 nM | 89 nM | 38.6 nM | 384 nM |
| N#CCCNC1CC(n2cnc3cnc4[nH]ccc4c32)C1 (stereo not shown) [Example 331, 3-[3-(6H-1,3,5,6-Tetraaza-as-indacen-1-yl)-cyclobutylamino]-propionitrile] | 64.4 nM | 16 nM | 6.08 nM | 45.8 nM |
| C[C@@H](O)c1nc2cnc3[nH]ccc3c2n1C1CCN(Cc2cncn2C)CC1 [Example 823, (R)-1-{1-[1-(3-Methyl-3H-imidazol-4-ylmethyl)-piperidin-4-yl]-1,6-dihydro-1,3,5,6-tetraaza-as-indacen-2-yl}-ethanol] | 84.8 nM | 171 nM | 22.2 nM | 179 nM |
| CS(=O)(=O)Nc1ccc(N2CCC(n3cnc4cnc5[nH]ccc5c43)CC2)nc1 [Example 211, N-[4-(6H-1,2,3,5,6-Tetraaza-as-indacen-1-yl)-3,4,5,6-tetrahydro-2H-[1,2]bipyridinyl-5′-yl]-methanesulfonamide] | 133 nM | 22.2 nM | 7 nM | 61.4 nM |
| Cc1nc2cnc3[nH]ccc3c2n1C1CCC(N2CCC(C#N)CC2)CC1 (stereo not shown) [Example 768, 1-[4-(2-Methyl-6H-1,3,5,6-tetraaza-as-indacen-1-yl)-cyclohexyl]-piperidine-4-carbonitrile] | 85.9 nM | 6.47 nM | 1.77 nM | 23.4 nM |
| CCN1CC[C@@H](n2cnc3cnc4[nH]ccc4c32)[C@@H](F)C1 [Example 523, 1-((3S,4R)-1-Ethyl-3-fluoro-piperidin-4-yl)-1,6-dihydro-1,3,5,6-tetraaza-as-indacene] | 302 nM | 16.7 nM | 11.2 nM | 85.6 nM |
| C[C@@H](O)c1nc2cnc3[nH]ccc3c2n1[C@@H]1CCN(S(C)(=O)=O)C1 [Example 686, (R)-1-[1-((R)-1-Methanesulfonyl-pyrrolidin-3-yl)-1,6-dihydro-1,2,3,5,6-tetraaza-as-indacen-2-yl]-ethanol] | 15.3 nM | 27 nM | 47.4 nM | 4.17 nM |

— patent US8461328B2, “Tricyclic heterocyclic compounds, compositions and methods of use thereof” (Genentech, Inc., priority 2010, dated 2013)
